Measurements from the supplement of paper PMC4862054.

Tests used:
Assay in all cases: normalised viability (% of control), CellTiter-Blue; higher = more viable cells (about 100 = DMSO control)
Conditions in all cases: incubation time: 72 h
CAL-51 [1] = test system: CAL-51
Description: (§1)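 DSRT, CellTiter-Blue viability, 72 h incubation. Signal is normalised to DMSO and benzethonium chloride controls. Value is the normalised response at dose 6.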

HDQ-P1 [2] = test system: HDQ-P1
Description: as §1

DU-4475 [3] = test system: DU-4475
Description: as §1

MDA-MB-453 [4] = test system: MDA-MB-453
Description: as §1

CAL-85-1 [5] = test system: CAL-85-1
Description: as §1

CAL-148 [6] = test system: CAL-148
Description: as §1

CAL-51 [7] = test system: CAL-51; remark: listed apart in the source
Description: (§2)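 DSRT, CellTiter-Blue viability, 72 h incubation. Signal is normalised to DMSO and benzethonium chloride controls. Value is the normalised response at dose 8.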

HDQ-P1 [8] = test system: HDQ-P1; remark: listed apart in the source
Description: as §2

DU-4475 [9] = test system: DU-4475; remark: listed apart in the source
Description: as §2

MDA-MB-453 [10] = test system: MDA-MB-453; remark: listed apart in the source
Description: as §2

CAL-85-1 [11] = test system: CAL-85-1; remark: listed apart in the source
Description: as §2

CAL-148 [12] = test system: CAL-148; remark: listed apart in the source
Description: as §2

SMILES	normalised viability (CAL-51 [1])	normalised viability (HDQ-P1 [2])	normalised viability (DU-4475 [3])	normalised viability (MDA-MB-453 [4])	normalised viability (CAL-85-1 [5])	normalised viability (CAL-148 [6])	normalised viability (CAL-51 [7])	normalised viability (HDQ-P1 [8])	normalised viability (DU-4475 [9])	normalised viability (MDA-MB-453 [10])	normalised viability (CAL-85-1 [11])	normalised viability (CAL-148 [12])
C=C1C[C@@H]2[C@H](CC[C@]3(C)C(=O)CC[C@@H]23)[C@@]2(C)C=CC(=O)C=C12 [Exemestane] (300 nM)	97.1%	78%	81.7%	90.8%	88.5%	87%	–	–	–	–	–	–
COc1cc(OC2CCN(C)CC2)ccc1Nc1ncc2c(n1)n(C1CCCC1)c(=O)n2C [AZ 3146] (300 nM)	87.6%	76.6%	115%	97.2%	109%	115%	–	–	–	–	–	–
N#Cc1ccc(COC[C@H]2O[C@@H](n3c(NCc4ccc(Cl)c(Cl)c4)nc4c(N)ncnc43)[C@H](O)[C@@H]2O)cc1 (300 nM)	117%	67%	91.7%	112%	96.9%	110%	–	–	–	–	–	–
Cc1ccc(NC(=O)c2ccc(CN3CCN(C)CC3)cc2)cc1Nc1nc(-c2cccnc2)cs1 [Masitinib] (3000 nM)	–	–	–	–	–	–	115%	103%	125%	65.5%	94%	74.8%
Cc1ccc(NC(=O)c2ccc(CN3CCN(C)CC3)cc2)cc1Nc1nc(-c2cccnc2)cs1 [Masitinib] (300 nM)	98.2%	68.5%	98.7%	88.5%	90.4%	84.7%	–	–	–	–	–	–
S=P(N1CC1)(N1CC1)N1CC1 [Thio-TEPA] (30000 nM)	–	–	–	–	–	–	102%	108%	103%	97%	97.8%	127%
COCC1(CO)C(=O)C2CCN1CC2 (stereo not given) [Prima-1 Met] (3000 nM)	–	–	–	–	–	–	97.2%	77.5%	101%	100%	91.4%	89.1%
Cc1cc(Nc2cc(CN3CCOCC3)c3nc(C)c(Cc4ccc(Cl)cc4F)n3n2)n[nH]1 (300 nM)	90.5%	45.8%	104%	63.9%	103%	89.3%	–	–	–	–	–	–
Cc1cc(Nc2cc(CN3CCOCC3)c3nc(C)c(Cc4ccc(Cl)cc4F)n3n2)n[nH]1 (3000 nM)	–	–	–	–	–	–	38.2%	35.5%	52.4%	60.7%	59.4%	76.1%
CC(C)C[C@@H](C(=O)N[C@H](C(=O)OC1CCCC1)c1ccccc1)[C@H](O)C(=O)NO [Tosedostat] (3000 nM)	–	–	–	–	–	–	75.3%	72.9%	48.1%	49.8%	61.1%	56.5%
N#Cc1ccc(COC[C@H]2O[C@@H](n3c(NCc4ccc(Cl)c(Cl)c4)nc4c(N)ncnc43)[C@H](O)[C@@H]2O)cc1 (3000 nM)	–	–	–	–	–	–	99.3%	89.5%	82.7%	96%	93%	87.7%
CN(C)CCOc1ccc(/C(=C(/CCCl)c2ccccc2)c2ccccc2)cc1 [Toremifene] (300 nM)	104%	79.5%	99.7%	101%	101%	102%	–	–	–	–	–	–
CNC(=O)c1cc(Oc2ccc(NC(=O)Nc3ccc(Cl)c(C(F)(F)F)c3)c(F)c2)ccn1 [Regorafenib] (300 nM)	100%	89.8%	103%	95.6%	85.3%	93.6%	–	–	–	–	–	–
C=C1C[C@@H]2[C@H](CC[C@]3(C)C(=O)CC[C@@H]23)[C@@]2(C)C=CC(=O)C=C12 [Exemestane] (3000 nM)	–	–	–	–	–	–	110%	92.4%	106%	79%	90.7%	104%
COc1cc(OC2CCN(C)CC2)ccc1Nc1ncc2c(n1)n(C1CCCC1)c(=O)n2C [AZ 3146] (3000 nM)	–	–	–	–	–	–	28%	72.4%	89%	69.6%	84.5%	43.5%
COCC1(CO)C(=O)C2CCN1CC2 (stereo not given) [Prima-1 Met] (300 nM)	91.2%	53.8%	116%	87.1%	83.3%	94.5%	–	–	–	–	–	–
O=C(/C=C/c1cccc(S(=O)(=O)Nc2ccccc2)c1)NO [Belinostat] (300 nM)	105%	26.6%	59.2%	16.9%	72.5%	49.3%	–	–	–	–	–	–
CN(C)c1nc(N(C)C)nc(N(C)C)n1 [Altretamine] (3000 nM)	–	–	–	–	–	–	114%	99.9%	115%	108%	97.8%	97%
O=P1(N(CCCl)CCCl)NCCCO1 (stereo not given) [Cyclophosphamide] (12000 nM)	–	–	–	–	–	–	105%	110%	104%	109%	93.7%	97.2%
Oc1ccc2c(c1)CC[C@H](c1ccccc1)[C@@H]2c1ccc(OCCN2CCCC2)cc1 [Lasofoxifene] (300 nM)	–	–	–	–	–	–	109%	102%	96.4%	104%	96.8%	98.2%
